Experimental data taken from US20120129869A1, “PHOSPHORYLATION AND MUTATIONS OF ANAPLASTIC LYMPHOMA KINASE AS A DIAGNOSTIC AND THERAPEUTIC TARGET IN LUNG CANCER” (Academia Sinica, priority 2010, published 2012).

Key:
phosphorylated-Y1604 ALK [1] = experiment: IHC staining of phosphorylated-Y1604 ALK in xenograft tumor sections; type: in vivo, nude mice; conditions: H694R and E1384K xenograft tumor sections, versus DMSO control
Description: Human lung cancer tissue arrays containing 37 normal lung and 263 lung cancer sections from Pantomics (Luc961, Luc962, Luc1501, Luc1502 and Luc1503) were deparaffinized and the frozen tumor sections from the xenograft nude mice were fixed in 3% formaldehyde solution. All sections were treated in 3% H2O2 buffer for 30 minutes to inactivate the endogenous peroxidase activities, and then treated with 0.01M sodium citrate buffer for antigen retrieval. After blocking with 10% normal goat serum, these sections were reacted with specific antibodies at 4° C. for overnight. Subsequently, these sections were incubated with Super Picture HRP polymer conjugate secondary antibody (Zymed Laboratories), and then stained with DAB chromagen (Zymed Laboratories). These sections were also stained with Hematoxylin (DAKO).
(§1) Animal protocol was approved by the Institutional Animal Safety Committee. A total of 1×10^6 ALK-wild type or mutants expressed H1299 transfectants were mixed with matrigel (BD) and then subcutaneously injected into the right flank of four-week-old BALB/c NU mice. For WHI-P154 treatments, the nude mice were randomly divided into two groups when the mean tumor volume reached 20-50 mm^3. DMSO or WHI-P154 (1 mg/kg/day) was intravenously injected daily. The tumor volumes were measured weekly and calculated according to the formula: volume=length×width^2×0.52.

H1299 cells [2] = experiment: Anchorage-independent growth (soft agar) assay; type: cell-based; conditions: compared with DMSO control
Description: A total of 2×10^4 H1299 or NIH3T3 transfectants were mixed in a final 0.3% agarose and plated onto the 60-mm plate containing 0.5% agarose. These cells were further cultured in 5% CO2 incubator at 37° C. for one month. The plates were dehydrated at room temperature and then stained with 0.3% crystal violet for visualizing colonies. The colony numbers were counted by using Image-pro plus analysis program.

[3] = test system: H1299 transfectants of wild type, H694R and E1384K ALKs; experiment: WST-1 cell growth, wild type and mutated ALK transfectants together; type: cell-based; conditions: both wild type and mutated ALK transfectants
Source text: The full-length cDNA of ALK-wild type was inserted into pCDNA3.0 vector by restriction sites Hind III and Not I. All ALK mutations were generated from the template of pCDNA3.0-ALK-wild type full-length construct using site-directed mutagenesis. H1299 and NIH3T3 cells were maintained in Dulbecco's Modified Eagle Medium (DMEM) medium supplemented with 10% Fetal Bovine Serum (FBS) and streptomycin. The H1299 and NIH3T3 cells were transfected with the expression constructs by Lipofectamine 2000 (Invitrogen) and further selected by G418 to establish mixtures of ALK-expressed transfectants.
For analysis of cell growth, a total of 1×10^3 cells/well was seeded in 96-well plate. After different culturing time, 10 μl/well WST-1 reagent (Roche Diagnostics) was added for reaction at 37° C. for 50 minutes. The absorbance at 450 nm was measured.

[4] = test system: GFP-labeled H1299 transfectants of H694R and E1384K ALK; experiment: In vivo metastasis assay (tail vein injected lung metastasis model); set-up: species or system nude mice; conditions: 1 mg/kg/day intravenously
Description: In order to examine the in vivo metastatic capability, ALK wild type or mutations expressed H1299 transfectants were infected with GFP-lentivirus to generate the GFP fluorescence-labeled cells. A total of 2×10^6 cells were injected into nude mice through tail vein for measuring lung metastasis. For investigation of the tumor suppressive effects using ALK inhibitor, the nude mice were intravenously injected daily with WHI-P154 (1 mg/kg/day) after cell inoculation for 14 days. The survival rate was recorded daily and scarified the rest mice after 105 days. The pulmonary metastasis of GFP-labeled H1299 transfectants were visualized by fluorescence stereomicroscope.

[5] = test system: H694R and E1384K ALK H1299 transfectants xenograft; experiment: In vivo xenograft tumor formation assay; set-up: species or system BALB/c NU mice; conditions: ALK mutations-bearing mice, 1 mg/kg/day intravenously, versus DMSO control
Description: as §1

phosphorylated-Y1604 ALK [6] = experiment: Western blotting of phosphorylated-Y1604 ALK expression in H1299 transfectants; type: cell-based; conditions: both wild type and mutated ALK transfectants
Source text: For Western blotting analysis, the membranes were probed with specific antibodies against HA (Covance), phospho-tyrosine (4G10; Upstate Biotechnology), STAT3 (sc-482; Santa Cruz) and α-tubulin (DM1A; NeoMarkers). The phospho-ALK (Tyr1604), phospho-Akt ([…]), phospho-STAT3 (Tyr705), phospho-ERK (Thr202/Tyr204), Akt and ERK antibodies were purchased from Cell Signaling. For IHC staining assay, the tissue sections were stained with specific antibodies against phospho-ALK (pY1604; Epitomics), ALK (4204-1; Epitomics), phospho-STAT3 (Tyr705, D3A7; Cell Signaling) and phospho-Akt (Ser473, 736E11; Cell Signaling). The ALK inhibitor WHI-P154 was purchased from Calbiochem.
Cells were lysed in RIPA buffer (200 mM Tris, 150 mM NaCl, 1 mM EDTA, 1% NP40, 1 mM PMSF, 1 mM DTT) with addition of 1× phosphatase inhibitor cocktail set II from Calbiochem and 1× cocktails of protease inhibitor from Roche. The protein concentration was measured by BCA protein assay kit (Pierce Chemical). The equal amounts of cell lysates were subjected to SDS-PAGE, transferred to NC membranes, and then probed with specific antibody for protein detection. For co-immunoprecipitation assay, the equal amounts of cell lysates were firstly incubated with anti-HA antibody for one hour and subsequently reacted with protein A/G for overnight. […]

H1299 cells [7] = experiment: Boyden chamber cell migration assay; type: cell-based; conditions: compared with DMSO control
Description: The cell migration capability was examined by Boyden chamber assay. Briefly, a total of 2×10^4 H1299 or NIH3T3 transfectants were inoculated into the cell migration insert (BD Biosciences) containing 350 μl DMEM medium alone, and the insert was placed into the well containing 750 μl complete DMEM medium in 24-well plate. After 24 hours incubation, the migrated cells were fixed with 100% methanol and stained by Giemsa's solution (Merck). The numbers of migrated cells were counted by using Image-pro plus analysis program.

## COc1cc2ncnc(Nc3ccc(O)c(Br)c3)c2cc1OC [WHI-P154]
phosphorylated-Y1604 ALK [1]
  expression of phosphorylated-Y1604 ALK in tumor sections: significant lower expression of phosphorylated-Y1604 ALK
H1299 cells [2]
  inhibition of soft agar growth: profound inhibition
[3]
  inhibition of cell growth: dose-dependent inhibition
[4]; mice with H694R and E1384K mutations
  survival: survive as long as control mice
[4]; mutation-bearing mice
  lung metastasis: significantly suppresses lung metastasis
[5]
  tumor growth: significant reduction of tumor growth
phosphorylated-Y1604 ALK [6]
  inhibition of expression of phosphorylated-Y1604 ALK: dose-dependent inhibition
H1299 cells [7]
  inhibition of cell migration: profound inhibition
